For series [1], the system named is RSV (RSV A2 ECACC, 0709161v). As to the kind of experiment: RSV plaque reduction assay. The format is cell-based, respiratory syncytial virus. The conditions noted are these: human respiratory syncytial virus, HepG2, read-out: RSV A2 Plaque EC50, RSV A2 in Hep-G2 cells; mean of at least two experiments unless noted (n = 1). In a few lines: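 Eight-point compound dilutions were premixed with RSV A2 (100 PFU/well) and applied to confluent Hep-G2 cells for 2 h, followed by a 2-day incubation at 37° C. under compound-containing 0.8% CMC overlay. EC50 comes from immunostained plaque counts relative to untreated virus wells, averaged over ≥2 runs.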
A general note: Plaque reduction counts the foci of infection that form in a cell layer.

Another series is described as follows: cell toxicity CC50. It counts as cell-based. The conditions noted are these: human; Hep-G2 cells; mean of at least two experiments; read-out: Cell Cytotoxicity CC50.

Each structure is given as a SMILES string.

The EC50 is the midpoint of the concentration-response curve. By CC50 is commonly meant the concentration giving 50% cytotoxicity. As for `O=C(N[C@H]1N=C(c2ccccc2)c2cccc(F)c2NC1=O)c1c(-c2ccc(NC3CC3)nc2)nn2c1OCCC2` [Example 15, 2-[6-(Cyclopropylamino)pyridin-3-yl]-N-[(3S)-9-fluoro-2-oxo-5-phenyl-1,3-dihydro-1,4-benzodiazepin-3-yl]-6,7-dihydro-5H-pyrazolo[5,1-b][1,3]oxazine-3-carboxamide], the EC50 in series [1] amounted to 30 nM. The cytotoxic concentration (CC50) in “cell toxicity CC50” is greater than 25000 nM.

Regarding `CCc1ccc(-c2nn3c(c2C(=O)N[C@H]2N=C(c4ccccc4)c4cccc(F)c4NC2=O)OCC2(CCC2)C3)cn1` [Example 177, 2-(6-Ethylpyridin-3-yl)-N-[(3S)-9-fluoro-2-oxo-5-phenyl-1,3-dihydro-1,4-benzodiazepin-3-yl]spiro[5,7-dihydropyrazolo[5,1-b][1,3]oxazine-6,1′-cyclobutane]-3-carboxamide], the EC50 in series [1] was determined as 125 nM. The CC50 in the series “cell toxicity CC50” was greater than 25000 nM.

As to `CO[C@@H]1CCN(c2ccc(-c3nn4c(c3C(=O)N[C@H]3N=C(c5ccccc5)c5cccc(F)c5NC3=O)O[C@H](C)CC4)cn2)C1` [Example 145, (5R)-N-[(3S)-9-fluoro-2-oxo-5-phenyl-1,3-dihydro-1,4-benzodiazepin-3-yl]-2-[6-[(3R)-3-methoxypyrrolidin-1-yl]pyridin-3-yl]-5-methyl-6,7-dihydro-5H-pyrazolo[5,1-b][1,3]oxazine-3-carboxamide], the EC50 in series [1] was 278 nM. For the same compound, in the series “cell toxicity CC50”, the CC50 is greater than 25000 nM.

With `O=C(N[C@H]1N=C(c2ccccc2)c2cccc(F)c2NC1=O)c1c(Br)nn2c1OCCC2` [Example 195, 2-Bromo-N-[(3S)-9-fluoro-2-oxo-5-phenyl-1,3-dihydro-1,4-benzodiazepin-3-yl]-6,7-dihydro-5H-pyrazolo[5,1-b][1,3]oxazine-3-carboxamide], the EC50 in series [1] is 355 nM. Besides, the 50% cytotoxic concentration (CC50) in “cell toxicity CC50” is greater than 25000 nM.

Regarding `CC(C)Nc1ccc(-c2nn3c(c2C(=O)N[C@H]2N=C(c4ccccc4)c4ccccc4NC2=O)OCC2(CC2)C3)cn1` [Example 178, 2-[6-(Propan-2-ylamino)pyridin-3-yl]-N-[(3S)-2-oxo-5-phenyl-1,3-dihydro-1,4-benzodiazepin-3-yl]spiro[5,7-dihydropyrazolo[5,1-b][1,3]oxazine-6,1′-cyclopropane]-3-carboxamide], the half-maximal effective concentration (EC50) in series [1] is 75 nM. Moreover, the CC50 in the series “cell toxicity CC50” is greater than 25000 nM.

As for `O=C(N[C@H]1N=C(c2ccccc2)c2cccc(F)c2NC1=O)c1c(-c2ccc(F)cc2F)nn2c1S(=O)(=O)CCC2` [Example 32, 2-(2,4-Difluorophenyl)-N-[(3S)-9-fluoro-2-oxo-5-phenyl-2,3-dihydro-1H-1,4-benzodiazepin-3-yl]-4,4-dioxo-5H,6H,7H-4λ^6-pyrazolo[3,2-b][1,3]thiazine-3-carboxamide], the EC50 in series [1] was determined as 411 nM. Further, in “cell toxicity CC50”, the CC50 was greater than 25000 nM.

Consider `C[C@@H]1CCn2nc(-c3cnn(CCN(C)C)c3)c(C(=O)N[C@H]3N=C(c4ccccc4)c4cccc(F)c4NC3=O)c2O1` [Example 165, (5R)-2-[1-[2-(Dimethylamino)ethyl]pyrazol-4-yl]-N-[(3S)-9-fluoro-2-oxo-5-phenyl-1,3-dihydro-1,4-benzodiazepin-3-yl]-5-methyl-6,7-dihydro-5H-pyrazolo[5,1-b][1,3]oxazine-3-carboxamide], for which the EC50 in series [1] came out at 349 nM. Besides, the CC50 in the series “cell toxicity CC50” is greater than 25000 nM.

In the case of `C[C@@H]1CCn2nc(-c3ccc(N4C[C@H]5C[C@@H]4CO5)nc3F)c(C(=O)N[C@H]3N=C(c4ccccc4)c4cccc(F)c4NC3=O)c2O1` (single isomer, unassigned) [Example 90], in series [1], the EC50 is 20 nM. Further, the half-maximal cytotoxic concentration (CC50) in the series “cell toxicity CC50” was greater than 25000 nM.

Take `O=C(N[C@H]1N=C(c2ccccc2)c2ccccc2NC1=O)c1c(-c2cccnc2F)nn2c1OCCC2` [Example 136, 2-(2-Fluoropyridin-3-yl)-N-[(3S)-2-oxo-5-phenyl-1,3-dihydro-1,4-benzodiazepin-3-yl]-6,7-dihydro-5H-pyrazolo[5,1-b][1,3]oxazine-3-carboxamide]: in series [1], the EC50 worked out at 182 nM. Also, the CC50 in the series “cell toxicity CC50” was greater than 25000 nM.

For the compound `CC(C)Nc1ccc(-c2nn3c(c2C(=O)N[C@H]2N=C(c4ccccc4)c4cccc(F)c4NC2=O)O[C@@H](C)CC3)c(F)n1` [Example 31, (5S)-N-[(3S)-9-fluoro-2-oxo-5-phenyl-1,3-dihydro-1,4-benzodiazepin-3-yl]-2-[2-fluoro-6-(propan-2-ylamino)pyridin-3-yl]-5-methyl-6,7-dihydro-5H-pyrazolo[5,1-b][1,3]oxazine-3-carboxamide], in series [1], the concentration giving a half-maximal response (EC50) was 11 nM. In addition, the cytotoxic concentration (CC50) in “cell toxicity CC50” was greater than 25000 nM.

Turning to `C[C@H]1CCn2nc(-c3ccccc3F)c(C(=O)N[C@H]3N=C(c4ccccc4)c4ccccc4NC3=O)c2O1` [Example 26, (5S)-2-(2-Fluorophenyl)-5-methyl-N-[(3S)-2-oxo-5-phenyl-1,3-dihydro-1,4-benzodiazepin-3-yl]-6,7-dihydro-5H-pyrazolo[5,1-b][1,3]oxazine-3-carboxamide], in series [1], the concentration giving a half-maximal response (EC50) came to 43 nM. Moreover, the half-maximal cytotoxic concentration (CC50) in the series “cell toxicity CC50” was greater than 25000 nM.

Consider `CC(C)c1ccc(-c2nn3c(c2C(=O)N[C@H]2N=C(c4ccccc4)c4cccc(F)c4NC2=O)O[C@H](C)CC3)cn1` [Example 70, (5R)-5-Methyl-2-(6-propan-2-ylpyridin-3-yl)-N-[(3S)-9-fluoro-2-oxo-5-phenyl-1,3-dihydro-1,4-benzodiazepin-3-yl]-6,7-dihydro-5H-pyrazolo[5,1-b][1,3]oxazine-3-carboxamide], for which the EC50 in series [1] turned out to be 50 nM. Besides, the 50% cytotoxic concentration (CC50) in “cell toxicity CC50” is greater than 25000 nM.

For the compound `CCn1cc(-c2nn3c(c2C(=O)N[C@H]2N=C(c4ccccc4)c4cccc(F)c4NC2=O)OCC(CO)C3)cn1` (stereo partly drawn) [Example 130, 2-(1-Ethylpyrazol-4-yl)-N-[(3S)-9-fluoro-2-oxo-5-phenyl-1,3-dihydro-1,4-benzodiazepin-3-yl]-6-(hydroxymethyl)-6,7-dihydro-5H-pyrazolo[5,1-b][1,3]oxazine-3-carboxamide], the concentration for a half-maximal effect (EC50) in series [1] came out at 350 nM. Besides, the half-maximal cytotoxic concentration (CC50) in the series “cell toxicity CC50” was greater than 25000 nM.

Consider `O=C(N[C@H]1N=C(c2ccccc2)c2ccccc2NC1=O)c1c(-c2cccnc2)nn2c1OCCC2` [Example 16, N-[(3S)-2-Oxo-5-phenyl-1,3-dihydro-1,4-benzodiazepin-3-yl]-2-pyridin-3-yl-6,7-dihydro-H-pyrazolo[5,1-b][1,3]oxazine-3-carboxamide], for which the concentration giving a half-maximal response (EC50) in series [1] was found to be 454 nM. For the same compound, the CC50 in the series “cell toxicity CC50” is greater than 25000 nM.

Regarding `CN(C)CC1CCn2nc(-c3ccccc3F)c(C(=O)N[C@H]3N=C(c4ccccc4)c4cccc(F)c4NC3=O)c2O1` (stereo partly drawn) [Example 166, 5-[(Dimethylamino)methyl]-N-[(3S)-9-fluoro-2-oxo-5-phenyl-1,3-dihydro-1,4-benzodiazepin-3-yl]-2-(2-fluorophenyl)-6,7-dihydro-5H-pyrazolo[5,1-b][1,3]oxazine-3-carboxamide], in series [1], the EC50 was 201 nM. The half-maximal cytotoxic concentration (CC50) in the series “cell toxicity CC50” was greater than 25000 nM.

For `CC(C)NCc1ccc(-c2nn3c(c2C(=O)N[C@H]2N=C(c4ccccc4)c4cccc(F)c4NC2=O)O[C@H](C)CC3)c(F)c1` [Example 183, (5R)-N-[(3S)-9-fluoro-2-oxo-5-phenyl-1,3-dihydro-1,4-benzodiazepin-3-yl]-2-[2-fluoro-4-[(propan-2-ylamino)methyl]phenyl]-5-methyl-6,7-dihydro-5H-pyrazolo[5,1-b][1,3]oxazine-3-carboxamide], the EC50 in series [1] stood at 294 nM. The CC50 in “cell toxicity CC50” was greater than 25000 nM.

With `CCc1ccc(-c2nn3c(c2C(=O)N[C@H]2N=C(c4ccccc4)c4cccc(F)c4NC2=O)OCC2(CC2)C3)cn1` [Example 181, 2-(6-Ethylpyridin-3-yl)-N-[(3S)-9-fluoro-2-oxo-5-phenyl-1,3-dihydro-1,4-benzodiazepin-3-yl]spiro[5,7-dihydropyrazolo[5,1-b][1,3]oxazine-6,1′-cyclopropane]-3-carboxamide], in series [1], the concentration giving a half-maximal response (EC50) turned out to be 42 nM. In addition, in “cell toxicity CC50”, the CC50 was greater than 25000 nM.

With `CCc1ccc(-c2nn3c(c2C(=O)N[C@H]2N=C(c4ccccc4)c4ccccc4NC2=O)O[C@H](C)CC3)c(C)n1` [Example 65, (5R)-2-(6-Ethyl-2-methyl-3-pyridyl)-5-methyl-N-[(3S)-2-oxo-5-phenyl-1,3-dihydro-1,4-benzodiazepin-3-yl]-6,7-dihydro-5H-pyrazolo[5,1-b][1,3]oxazine-3-carboxamide], the half-maximal effective concentration (EC50) in series [1] came out at 84 nM. Moreover, the half-maximal cytotoxic concentration (CC50) in “cell toxicity CC50” was greater than 25000 nM.

On to `O=C(N[C@H]1N=C(c2ccccc2)c2cccc(F)c2NC1=O)c1c(-c2ccc(F)cc2F)nn2c1OCC(CO)C2` (stereo partly drawn) [Example 128, 2-(2,4-Difluorophenyl)-N-[(3S)-9-fluoro-2-oxo-5-phenyl-1,3-dihydro-1,4-benzodiazepin-3-yl]-6-(hydroxymethyl)-6,7-dihydro-5H-pyrazolo[5,1-b][1,3]oxazine-3-carboxamide], for which the half-maximal effective concentration (EC50) in series [1] came to 41 nM. Further, the CC50 in “cell toxicity CC50” is greater than 25000 nM.

On to `C[C@@H]1CCn2nc(-c3ccc(S(N)(=O)=O)cc3F)c(C(=O)N[C@H]3N=C(c4ccccc4)c4cccc(F)c4NC3=O)c2O1` [Example 199, (5R)-N-[(3S)-9-Fluoro-2-oxo-5-phenyl-1,3-dihydro-1,4-benzodiazepin-3-yl]-2-(2-fluoro-4-sulfamoylphenyl)-5-methyl-6,7-dihydro-5H-pyrazolo[5,1-b][1,3]oxazine-3-carboxamide], for which, in series [1], the concentration for a half-maximal effect (EC50) was found to be 64 nM. Further, the cytotoxic concentration (CC50) in the series “cell toxicity CC50” is greater than 25000 nM.

As for `O=C(N[C@H]1N=C(c2ccccc2)c2cccc(F)c2NC1=O)c1c(-c2ccccc2F)nn2c1OC(CO)CC2` (single isomer, unassigned) [Example 190-1, (5R*)-N-[(3S)-9-Fluoro-2-oxo-5-phenyl-1,3-dihydro-1,4-benzodiazepin-3-yl]-2-(2-fluorophenyl)-5-(hydroxymethyl)-6,7-dihydro-5H-pyrazolo[5,1-b][1,3]oxazine-3-carboxamide], in series [1], the EC50 stood at 98 nM. In addition, the cytotoxic concentration (CC50) in “cell toxicity CC50” was greater than 25000 nM.

Values taken from patent publication US12678446B2 (PFIZER INC., priority 2020, dated 2026).
